Results on 1 compound are retold here after PMC4639830, “Inhibition of DYRK1A and GSK3B induces human β-cell proliferation” (Nature Communications, 2015).

Each structure is given as a SMILES string.

For the test, the system named is β-catenin nuclear localization in primary rat islets. Description: β-Catenin nuclear translocation. The format is cell-based. The procedure: At the end of the treatment, cells were fixed with 4% paraformaldehyde, blocked and permeabilized, and stained by standard immunofluorescence techniques for β-catenin (Cell signaling, #9562L; dilution 1:500), NFATc1 (Santa Cruz, rabbit polyclonal, SC-7294; dilution 1:200) or NFAT3c (Santa Cruz, SC-8321; dilution 1:200) and nuclear DNA was stained with DAPI (Molecular Probes; dilution 1:1,000). EdU incorporation was measured by click reaction with AlexaFluor-647-azide (Invitrogen). Plates were imaged with confocal microscope and analysed by Metamorph (Molecular Devices).

For the compound `Nc1ncc(-c2ccccc2)nc1C(=O)Nc1cnccc1N1CCC(C(=O)O)CC1` [GNF7156], the β-catenin nuclear translocation result was “induced β-catenin nuclear translocation”.
